# Measurements taken from ChEMBL document CHEMBL5375952, “Discovery of Novel 8-Hydroxyquinoline Derivatives with Potent In Vitro and In Vivo Antifungal Activity” (J Med Chem, 2023).
# Activity calls are given as the source filed them. The calls are words filed in the database; no cut-off is given here.
# Experiments:
# Candida albicans [1] = assay: Synergistic antifungal activity against FLC-resistant Candida albicans 11 assessed as MIC of FLC incubated for 48 hrs by broth microdilution method; type: functional
# Candida albicans [2] = assay: Synergistic antifungal activity against FLC-resistant Candida albicans 12 assessed as MIC of FLC incubated for 48 hrs by broth microdilution method; type: functional
# Candida albicans [3] = assay: Synergistic antifungal activity against FLC-resistant Candida albicans 249 assessed as MIC of FLC incubated for 48 hrs by broth microdilution method; type: functional
# Candida albicans [4] = assay: Synergistic antifungal activity against FLC-resistant Candida albicans 305 assessed as MIC of FLC incubated for 48 hrs by broth microdilution method; type: functional
# Candida albicans [5] = assay: Synergistic antifungal activity against FLC-resistant Candida albicans 379 assessed as MIC of FLC incubated for 48 hrs by broth microdilution method; type: functional
# Candida albicans [6] = assay: Synergistic antifungal activity against FLC-resistant Candida albicans 385 assessed as MIC of FLC incubated for 48 hrs by broth microdilution method; type: functional
# Candida albicans [7] = assay: Synergistic antifungal activity against FLC-resistant Candida albicans 395 assessed as MIC of FLC incubated for 48 hrs by broth microdilution method; type: functional
# Candida albicans [8] = assay: Synergistic antifungal activity against FLC-resistant Candida albicans 605141 assessed as MIC of FLC incubated for 48 hrs by broth microdilution method; type: functional
# Candida albicans [9] = assay: Synergistic antifungal activity against FLC-resistant Candida albicans 710419 assessed as MIC of FLC incubated for 48 hrs by broth microdilution method; type: functional
# Candida albicans [10] = assay: Synergistic antifungal activity against FLC-resistant Candida albicans 710554 assessed as MIC of FLC incubated for 48 hrs by broth microdilution method; type: functional
# Candida albicans [11] = assay: Synergistic antifungal activity against FLC-resistant Candida albicans 12 assessed as fungal growth inhibition incubated for 48 hrs in presence of FLC by broth microdilution method; type: functional
# Candida albicans [12] = assay: Synergistic antifungal activity against FLC-resistant Candida albicans 100 assessed as fungal growth inhibition incubated for 48 hrs in presence of FLC by broth microdilution method; type: functional
# Candida albicans [13] = assay: Synergistic antifungal activity against FLC-resistant Candida albicans 241 assessed as fungal growth inhibition incubated for 48 hrs in presence of FLC by broth microdilution method; type: functional
# Candida albicans [14] = assay: Synergistic antifungal activity against FLC-resistant Candida albicans 305 assessed as fungal growth inhibition incubated for 48 hrs in presence of FLC by broth microdilution method; type: functional
# Candida albicans [15] = assay: Synergistic antifungal activity against FLC-resistant Candida albicans 395 assessed as fungal growth inhibition incubated for 48 hrs in presence of FLC by broth microdilution method; type: functional
# Candida albicans [16] = assay: Synergistic antifungal activity against FLC-resistant Candida albicans 540 assessed as fungal growth inhibition incubated for 48 hrs in presence of FLC by broth microdilution method; type: functional
# Candida albicans [17] = assay: Synergistic antifungal activity against FLC-resistant Candida albicans 819 assessed as fungal growth inhibition incubated for 48 hrs in presence of FLC by broth microdilution method; type: functional
# Candida albicans [18] = assay: Synergistic antifungal activity against FLC-resistant Candida albicans 710513 assessed as fungal growth inhibition incubated for 48 hrs in presence of FLC by broth microdilution method; type: functional
# Candida albicans [19] = assay: Synergistic antifungal activity against FLC-resistant Candida albicans 10 assessed as fractional inhibitory concentration index incubated for 48 hrs in presence of FLC by broth microdilution method; type: functional
# Candida albicans [20] = assay: Synergistic antifungal activity against FLC-resistant Candida albicans 12 assessed as fractional inhibitory concentration index incubated for 48 hrs in presence of FLC by broth microdilution method; type: functional
# Candida albicans [21] = assay: Synergistic antifungal activity against FLC-resistant Candida albicans 14 assessed as fractional inhibitory concentration index incubated for 48 hrs in presence of FLC by broth microdilution method; type: functional
# Candida albicans [22] = assay: Synergistic antifungal activity against FLC-resistant Candida albicans 100 assessed as fractional inhibitory concentration index incubated for 48 hrs in presence of FLC by broth microdilution method; type: functional
# Candida albicans [23] = assay: Synergistic antifungal activity against FLC-resistant Candida albicans 249 assessed as fractional inhibitory concentration index incubated for 48 hrs in presence of FLC by broth microdilution method; type: functional
# Candida albicans [24] = assay: Synergistic antifungal activity against FLC-resistant Candida albicans 305 assessed as fractional inhibitory concentration index incubated for 48 hrs in presence of FLC by broth microdilution method; type: functional
# Candida albicans [25] = assay: Synergistic antifungal activity against FLC-resistant Candida albicans 538 assessed as fractional inhibitory concentration index incubated for 48 hrs in presence of FLC by broth microdilution method; type: functional
# Candida albicans [26] = assay: Synergistic antifungal activity against FLC-resistant Candida albicans 5740 assessed as fractional inhibitory concentration index incubated for 48 hrs in presence of FLC by broth microdilution method; type: functional
# Candida albicans [27] = assay: Synergistic antifungal activity against FLC-resistant Candida albicans 64548 assessed as fractional inhibitory concentration index incubated for 48 hrs in presence of FLC by broth microdilution method; type: functional
# Candida albicans [28] = assay: Synergistic antifungal activity against FLC-resistant Candida albicans 710419 assessed as fractional inhibitory concentration index incubated for 48 hrs in presence of FLC by broth microdilution method; type: functional
# Candida albicans [29] = assay: Synergistic antifungal activity against Candida albicans 0304103 assessed as fungal growth inhibition at 4 ug/ml incubated for 48 hrs in presence of FLC by time-kill assay; type: functional, organism-based; conditions: dose 4.0 µg/ml
# Candida albicans [30] = assay: Synergistic antifungal activity against Candida albicans 0304103 assessed as reduction in fungal growth at 8 ug/ml incubated for 48 hrs in presence of FLC by time-kill assay; type: functional; conditions: dose 8 µg/ml
# Candida albicans [31] = assay: Inhibition of biofilm formation of Candida albicans SC5314 at 4 ug/ml incubated for 24 hrs by XTT assay relative to control; type: functional
# Candida albicans [32] = assay: Synergistic inhibition of biofilm formation of Candida albicans SC5314 at 2 ug/ml incubated for 24 hrs in presence of 0.0625 ug/ml of FLC by XTT assay relative to control; type: functional
# Candida albicans [33] = assay: Synergistic inhibition of biofilm formation of Candida albicans SC5314 incubated for 24 hrs in presence of FLC by XTT assay; type: functional, organism-based; conditions: dose <= 16.0 µg/ml
# Candida albicans [34] = assay: Synergistic inhibition of biofilm formation of Candida albicans SC5314 at 0.5 ug/ml incubated for 24 hrs in presence of 1 ug/ml of FLC by XTT assay relative to control; type: functional
# [35] = C0 in Sprague-Dawley rat at 2 mg/kg, iv by LC-MS/MS analysis; type: ADME, organism-based; conditions: in vivo
# [36] = Clearance in Sprague-Dawley rat at 2 mg/kg, iv by LC-MS/MS analysis; type: ADME, organism-based; conditions: in vivo
# [37] = MRT (0 to t) in Sprague-Dawley rat at 2 mg/kg, iv by LC-MS/MS analysis; type: ADME, organism-based; conditions: in vivo
# [38] = Cmax in Sprague-Dawley rat at 5 mg/kg, po by LC-MS/MS analysis; type: ADME, organism-based; design: dose 5 mg/kg, route po; conditions: in vivo
# [39] = Toxicity in C57BL/6 mouse infected with Candida albicans SC5314 assessed as animal death at 0.25 mg/kg, ip measured after 7 days; type: organism-based; conditions: in vivo, 168 h, time 7 day
# Candida albicans [40] = assay: Antifungal activity against Candida albicans SC5314 assessed as fungal growth inhibition incubated for 48 hrs in presence of Cu2+ by broth microdilution method (reference value: […] ug/ml); type: functional
structure (smiles),measurement,setting,value
CCN(CC)c1ccc(C(NC(=O)C(C)C)c2ccc3cccnc3c2O)cc1 (stereo not given),MIC,Candida albicans [1],0.25 µg/mL
same,MIC,Candida albicans [2],1 µg/mL
same,MIC,Candida albicans [3],0.125 µg/mL
same,MIC,Candida albicans [4],1 µg/mL
same,MIC,Candida albicans [5],1 µg/mL
same,MIC,Candida albicans [6],2 µg/mL
same,MIC,Candida albicans [7],0.25 µg/mL
same,MIC,Candida albicans [8],0.125 µg/mL
same,MIC,Candida albicans [9],0.25 µg/mL
same,MIC,Candida albicans [10],0.5 µg/mL
same,MIC,Candida albicans [11],0.008 µg/mL
same,MIC,Candida albicans [12],0.016 µg/mL
same,MIC,Candida albicans [13],0.016 µg/mL
same,MIC,Candida albicans [14],0.016 µg/mL
same,MIC,Candida albicans [15],0.016 µg/mL
same,MIC,Candida albicans [16],0.016 µg/mL
same,MIC,Candida albicans [17],0.016 µg/mL
same,MIC,Candida albicans [18],0.016 µg/mL
same,fractional inhibitory concentration index (FICI),Candida albicans [19],0.07
same,fractional inhibitory concentration index (FICI),Candida albicans [20],0.062
same,fractional inhibitory concentration index (FICI),Candida albicans [21],0.133
same,fractional inhibitory concentration index (FICI),Candida albicans [22],0.14
same,fractional inhibitory concentration index (FICI),Candida albicans [23],0.035
same,fractional inhibitory concentration index (FICI),Candida albicans [24],0.039
same,fractional inhibitory concentration index (FICI),Candida albicans [25],0.047
same,fractional inhibitory concentration index (FICI),Candida albicans [26],0.312
same,fractional inhibitory concentration index (FICI),Candida albicans [27],0.063
same,fractional inhibitory concentration index (FICI),Candida albicans [28],0.064
same,growth inhibition (GI),Candida albicans [29],Active
same,Activity,Candida albicans [30],>3 log10CFU/ml
same,inhibition at 4 µg/mL,Candida albicans [31],7.44%
same,inhibition at 2 µg/mL,Candida albicans [32],15.6%
same,inhibition,Candida albicans [33],Dose-Dependent Effect
same,inhibition at 0.5 µg/mL,Candida albicans [34],48.7%
same,C0,[35],2460 ng/mL
same,clearance,[36],30.4 mL/min/kg
same,MRT last,[37],2.05 h
same,Cmax,[38],239 ng/mL
OC(Cn1cncn1)(Cn1cncn1)c1ccc(F)cc1F [FLUCONAZOLE],Activity,[39],Toxic
Oc1c(I)cc(Cl)c2cccnc12 [CLIOQUINOL],MIC,Candida albicans [40],128 µg/mL
